The nature of series [1]: Intramolecular 19F NMR relaxation rates at 9.4 T. The format is physicochemical. The note with it: 5 CF2 groups (precursors and Ga3+ chelate), ± s.e.m. The text has this: Intramolecular ^19F NMR relaxometry measurements of 5a isomers further confirmed the structural analyses. We observed that among Fe3+ chelates, 5a OOO isomer had the highest, and 5a PPP isomer had the lowest, R1 and R2 values (Table 3). Ortho-substitution caused a more drastic intramolecular PRE, by ˜3 orders of magnitude, compared to para-substitution due to the closer proximity of the Fe3+ paramagnetic center to the ortho position ([…]) compared to the para position ([…]).
NMR spectra and relaxation rates were recorded on a Bruker Ascend 400 MHz (9.4 T) spectrometer (Billerica, MA). Additional relaxation rate measurements were performed at 3 T using a GE750 (General Electric, Milwaukee, WI) clinical MRI system equipped with a custom dual-channel ^19F/1H 72 mm diameter volume coil (RAPID Biomedical, Rimpar, Germany). The ^19F NMR spectra were referenced to an internal standard, sodium trifluoroacetate (NaTFA, 0.1 wt %, −76.00 ppm, Sigma-Aldrich, T6508), which was placed in a separate sealed capillary tube within the NMR tube. Relaxation measurements were performed using a standard inversion recovery pulse sequence and a Carr-Purcell-Meiboom-Gill sequence with echo-time (TE) values in 12 linear increments. The T1 and T2 values were obtained by nonlinear fitting using MNova 6.0.2 software (Mestrelab, Escondido, CA). Fit errors were less than 5% of T1 and T2 values. For quantitative peak measurements, spectra were acquired using calibrated 90° pulses, 32,000 complex points, spectral window 0 to −200 ppm, relaxation delay 2.5 s, and 128 averages. Spectra were processed in MNova with manual phase correction and Whittaker smoother baseline correction (filter=1 ppm). Relaxation parameters were measured for six middle CF2 peaks of PFOB, spanning ˜10 ppm, which account for 12 out of 17 F atoms in the molecule. To assay nanoemulsion uptake (^19F/cell) using NMR, an aliquot of 1×10^6 cells were pelleted and resuspended in 0.1 mL of lysis solution (0.5% Triton X, 100 mM NaCl, 20 mM Tris, 1 mM EDTA) and reference compound NaTFA (0.745 mg/mL)/D2O was added to 5 mm NMR tube. The integrated ratio of PFOB fluorine peaks to NaTFA singlet fluorine peak at −76.00 ppm determined the amount of ^19F in the cell pellet and the ^19F/cell was calculated.
NMR measurements. NMR spectra and relaxation rates were recorded on a Bruker Ascend 400 MHz (9.4 T) spectrometer (Billerica, MA). […] For quantitative peak measurements, spectra were acquired using calibrated 90° pulses, 32,000 complex points, spectral window 0 to −200 ppm, relaxation delay 2.5 s, and 128 averages. […] Relaxation parameters were measured for six middle CF2 peaks of PFOB, spanning ˜10 ppm, which account for 12 out of 17 F atoms in the molecule. […]

The nature of series [2]: Kinetics of emulsion metalation with metal salts (UV-Vis). The format is physicochemical. On the procedure:
Strong absorbance of aromatic diketone and its complexes permits facile kinetic investigation of metalation rates. In a typical measurement, emulsion from example 4 was diluted to 70 uM diketone (excess ligand, modeling radiolabeling conditions) into a solution of chosen pH and treated with 10 uM metal cations of relevance to medical imaging, including Fe^3+ (MRI), Cu^2+ (PET), Ga^3+ (PET, SPECT), Sc^3+ (PET), and In^3+ (SPECT). In all cases, UV-Vis spectral changes indicative of metal uptake into the fluorous phase were detected, proportional in magnitude to the amount of metal. For some metals, kinetic analysis was performed. The reaction time course fit well to a pseudo-first-order process with rate constant kobs (Table 1).

Series [3] is described as follows: 19F R1 relaxation leakage test of metalated emulsions with EDTA at 37 °C. The format is physicochemical. The settings on record: small fluorinated diketones. From the text:
Decrease in relaxation rate ^19F R1 would indicate sequestration of Fe^3+ to the aqueous phase, where it is too far from fluorine-19 nuclei to have an effect on ^19F R1.
It may be necessary for sufficient stability to use fluorinated diketones with heavily fluorinated substituents that are well-miscible with other fluorinated agents known in the art to be useful for ^19F MRI.

The conditions of series [4]: cited from earlier work.
For series [5] the following is noted: 3 T; cited from earlier work.
A short description of series [6]: Intermolecular 19F NMR relaxometry and susceptibility shift in PFOB. The note with it: neat PFOB. The class given is physicochemical. The text has this:
We screened the impact of various cations bound to SALTAME 5a and dissolved in PFOB via NMR relaxometry and susceptibility shift measurements (Table 4). Of the period-4 cations tested (V3+, Cr3+, Mn2+, Fe3+, Co2+, Cu2+, Ni2+, Zn2+, Ga3+), only Mn4+, Fe3+, Co3+, and Ga3+ formed stable and separable (by column chromatography) chelates with SALTAME. […] The diamagnetic Ga3+ chelate had little relaxation effects or shift for PFOB. […] Mn4+ changed r1, r2 and susceptibility shift, but to a much lesser extent than Fe3+.
The longitudinal and transverse ^19F relaxation rates of the Fe3+ chelate, 5a POP, was further evaluated as a function of iron concentration at the clinically-relevant field strength of 3 T yielding relaxivities r1 and r2 of 0.56 s−1 mM−1 and 1.67 s−1 mM−1, respectively, compared to 0.50 s−1 mM−1 and 1.07 s−1 mM−1 values of r1 and r2 at 9.4 T, respectively. […]
NMR spectra and relaxation rates were recorded on a Bruker Ascend 400 MHz (9.4 T) spectrometer (Billerica, MA). […] For quantitative peak measurements, spectra were acquired using calibrated 90° pulses, 32,000 complex points, spectral window 0 to −200 ppm, relaxation delay 2.5 s, and 128 averages. […] Relaxation parameters were measured for six middle CF2 peaks of PFOB, spanning ˜10 ppm, which account for 12 out of 17 F atoms in the molecule. […]

In a further series the test system is RAW cells. Kind of series: NAO flow cytometry assay for cytotoxicity (apoptosis). The class given is cell-based, murine. The settings on record: 16 h labeling, compared to unlabeled cells. As to the method: We investigated the potential effect of P-PFOB labeling on RAW cell viability and phenotype (FIG. 4A-FIG. 4D). To study cytotoxicity, we used a flow cytometry assay for apoptosis (FIGS. 4A-4C) using 10-N-nonyl acridine orange (NAO).^20 As a positive control to induce oxidative stress, 10% ethanol was added to the cell media. […] Side-scatter is routinely used in flow cytometry to distinguish cell types by granularity. Labeled cells often display increased granularity with internalization of PFC droplets. To assay cell phenotype, we used flow cytometry to monitor potential changes in cell surface CD86 expression as a marker for macrophage activation, where increased levels indicated a pro-inflammatory response to label. Lipopolysaccharide (LPS) treatment was used as a positive control to induce a pro-inflammatory phenotype.
Viability assay. 10-N-nonyl acridine orange (NAO) was obtained from Invitrogen (A1372, Carlsbad, CA). NE labeled and control RAW cells were stained with 100 ng/ml of NAO for 15 minutes followed by washes according to manufacturer's instructions. As a positive control, cells were stressed by incubation with 10% ethanol at 37° C. containing 5% CO2 for 90 minutes before NAO staining. Green fluorescence from NAO dye (emission max at 520 nm) was detected using flow cytometry (LSR Fortessa, BD Biosciences).
On the technique in general: A flow cytometer gives signals particle by particle.

Setting [7] is: final [M3+] 10 uM, final [ligand] 70 uM, pH 2.1 (8 mM HCl).

`O=Cc1cc(C(F)(F)C(F)(F)C(F)(F)C(F)(F)C(F)(F)C(F)(F)F)ccc1O` [3a, 5-Perfluorohexyl-salicylaldehyde]: in series [1], the “R1 (intramolecular 19F)” value amounted to 1.33 ± 0.01 s⁻¹ and the “R2 (intramolecular 19F)” value stood at 1.75 ± 0.01 s⁻¹.

`O=Cc1cccc(C(F)(F)C(F)(F)C(F)(F)C(F)(F)C(F)(F)C(F)(F)F)c1O` [3b, 3-Perfluorohexyl-salicylaldehyde]: in series [1], the “R1 (intramolecular 19F)” value worked out at 0.87 ± 0.01 s⁻¹ and the “R2 (intramolecular 19F)” value came out at 1.12 ± 0.01 s⁻¹.

Turning to `[Cl][Fe]([Cl])[Cl]` [FeCl3], the kobs is 0.79 min⁻¹ in series [2] (final [M3+] 5 uM, final [ligand] 70 uM, pH 2.1 (8 mM HCl)) and 0.70 min⁻¹ in series [2] (setting [7]).

In the case of `[Cl][Ga]([Cl])[Cl]` [GaCl3], the kobs in series [2] (setting [7]) was 0.043 min⁻¹.

On to `O=C(CC(=O)C(F)(F)F)c1ccccc1` [H-bta], for which, in series [3], the enhancing relaxation entry is listed as “highly effective”; the “stability under EDTA competition and cell labeling” value (“stability” for short) is listed as “not stable enough”.

`CC(C)(C)C(=O)CC(=O)C(F)(F)C(F)(F)C(F)(F)F` [H-fod]: in series [3], the enhancing relaxation result is recorded as “highly effective”; the “stability” value is on record as “not stable enough”.

As for `O=C(CC(=O)C(F)(F)F)C(F)(F)F` [H-hfp], in series [3], the enhancing relaxation result is given as “highly effective”; the “stability” value is “not stable enough”.

For `C/C(O)=C/C(=O)C(F)(F)C(F)(F)C(F)(F)F` [H-hhd], in series [3], the enhancing relaxation entry was “highly effective”; the “stability” value is listed as “not stable enough”.

In the case of `C/C(O)=C/C(=O)C(F)(F)C(F)(F)C(F)(F)C(F)(F)C(F)(F)C(F)(F)F` [H-tdd], in series [3], the enhancing relaxation result is recorded as “highly effective”; the “stability” value is on record as “not stable enough”.

Regarding `O=C(CC(=O)C(F)(F)F)c1cccs1` [H-tta], in series [3], the enhancing relaxation result was “highly effective”; the “stability” value is recorded as “not stable enough”.

Take `[Cl-].[Cl-].[Cl-].[In+3]` [InCl3]: the kobs in series [2] (final [M3+] 2 uM, final [ligand] 14 uM, pH ~5 (unbuffered H2O)) is over 10 min⁻¹; in series [2] (final [M3+] 10 uM, final [ligand] 70 uM, pH 7.4 HEPES) it was 0.0322 min⁻¹.

For the molecule `FC1(F)OC(F)(F)C(F)(F)OC(F)(F)C(F)(F)OC(F)(F)C(F)(F)OC(F)(F)C(F)(F)OC1(F)F` [PFCE, perfluoro-15-crown-5-ether], the “half-life in vivo (body)” value in series [4] is reported as over 100 days. Moreover, in series [5], the T1 was about 0.9 ms.

For the molecule `FC(F)(F)C(F)(F)C(F)(F)C(F)(F)C(F)(F)C(F)(F)C(F)(F)C(F)(F)Br` [PFOB, perfluorooctylbromide], the values for the R1 in series [6] (3 T) and in series [6] (9.4 T) were 0.79 s⁻¹ and 1.4 s⁻¹, respectively. For the same molecule, in series [4], the “half-life in vivo (body)” value is 3 to 8 days. Further, the T1 in series [5] is about 1200 ms.

On to `CCO` [ethanol], for which the “cytotoxicity (NAO apoptosis assay)” value in the series with RAW cells was “display cytotoxicity”.

The values are drawn from patent US12325715B2, “Fluorous metal chelates compositions” (The Regents of the University of California, priority 2018, dated 2025).
